The source of these data is patent publication US20150218212A1, “FLUORINATED EPOXYKETONE-BASED TETRAPEPTIDE COMPOUNDS AND USES THEREOF AS PROTEASOME INHIBITORS” (FLUORINOV PHARMA INC., priority 2012, published 2015).

Common to all, as to format: cell-based, human
In one assay the test system is OVCAR-8. The assay can be described thus: NCI screening panel, OVCAR-8 (Ovarian Cancer). How it is done: (§1) Representative compounds of Formula I were screened using the National Cancer Institute (NCI) screening panel, which consists of a panel of human tumor cell lines, representing leukemia, melanoma, and cancers of the lung, colon, ovary, breast, prostate and renal system.
(§2) After 24 h, two plates of each cell line are fixed in situ with TCA, to represent a measurement of the cell population for each cell line at the time of drug addition (Tz). Experimental drugs are solubilised in dimethyl sulfoxide at 400-fold the desired final maximum test concentration and stored frozen prior to use. At the time of drug addition, an aliquot of frozen concentrate is thawed and diluted to twice the desired final maximum test concentration with complete medium containing 50 μg/mL gentamicin. Additional four, 10-fold or ½ log serial dilutions are made to provide a total of five drug concentrations plus control. Aliquots of 100 μl of these different drug dilutions are added to the appropriate microtiter wells already containing 100 μl of medium, resulting in the required final drug concentrations.
(§3) Following drug addition, the plates are incubated for an additional 48 h at 37° C., 5% CO2, 95% air, and 100% relative humidity. For adherent cells, the assay is terminated by the addition of cold TCA (trichloroacetic acid). Cells are fixed in situ by the gentle addition of 50 μl of cold 50% (w/v) TCA (final concentration, 10% TCA) and incubated for 60 minutes at 4° C. The supernatant is discarded, and the plates are washed five times with tap water and air dried. Sulforhodamine B (SRB) solution (100 μl) at 0.4% (w/v) in 1% acetic acid is added to each well, and plates are incubated for 10 minutes at room temperature. After staining, unbound dye is removed by washing five times with 1% acetic acid and the plates are air dried. Bound stain is subsequently solubilised with 10 mM trizma base, and the absorbance is read on an automated plate reader at a wavelength of 515 nm. For suspension cells, the methodology is the same except that the assay is terminated by fixing settled cells at the bottom of the wells by gently adding 50 μl of 80% TCA (final concentration, 16% TCA). Using the seven absorbance measurements [time zero, (Tz), control growth, (C), and test growth in the presence of drug at the five concentration levels (Ti)], the percentage growth is calculated at each of the drug concentrations levels. Percentage growth inhibition is calculated as: [(Ti−Tz)/(C−Tz)]×100 for concentrations for which Ti>/=Tz and [(Ti−Tz)/Tz]×100 for concentrations for which Ti<Tz.
(§4) Three dose response parameters are calculated for each experimental agent. Growth inhibition of 50% (GI50) is calculated from [(Ti−Tz)/(C−Tz)]×100=50, which is the drug concentration resulting in a 50% reduction in the net protein increase (as measured by SRB staining) in control cells during the drug incubation. The drug concentration resulting in total growth inhibition (TGI) is calculated from Ti=Tz. The LC50 (concentration of drug resulting in a 50% reduction in the measured protein at the end of the drug treatment as compared to that at the beginning) indicating a net loss of cells following treatment is calculated from [(Ti−Tz)/Tz]×100=−50. Values are calculated for each of these three parameters if the level of activity is reached. However, if the effect is not reached or is exceeded, the value for that parameter is expressed as greater or less than the maximum or minimum concentration tested.

The next assay relates to M14. The assay can be described thus: NCI screening panel, M14 (Melanoma). How it is done: as §1, §2, §3, §4
The test system of another assay is RXF 393. The assay can be described thus: NCI screening panel, RXF 393 (Renal Cancer). How it is done: as §1, §2, §3, §4
A further assay relates to NCI/ADR-RES. The assay can be described thus: NCI screening panel, NCI/ADR-RES (Ovarian Cancer). How it is done:
as §1, §2, §3, §4

Another assay deals with CCRF-CEM. The assay can be described thus: NCI screening panel, CCRF-CEM (Leukemia). How it is done: as §1, §2, §3, §4
In the next assay the test system is HOP-92. The assay can be described thus: NCI screening panel, HOP-92 (Non-Small Cell Lung Cancer). How it is done: as §1, §2, §3, §4

Structures are written as SMILES.

As to `CC(C)C[C@H](NC(=O)[C@H](COC(F)F)NC(=O)CN1CCOCC1)C(=O)N[C@@H](Cc1ccccc1)C(=O)N[C@@H](CC(C)C)C(=O)[C@@]1(C)CO1` [Example 2, (2S)-N-[(1S)-1-benzyl-2-[[(1S)-3-methyl-1-[(2R)-2-methyloxirane-2-carbonyl]butyl]-amino]-2-oxo-ethyl]-2-[[(2S)-3-(difluoromethoxy)-2-[(2-morpholinoacetyl)amino]propanoyl]amino]-4-methyl-pentanamide], the Log10GI50 is −7.22 in the assay with OVCAR-8, −7.39 in the assay on M14, −7.52 in the assay with RXF 393 and −5.80 in the assay on NCI/ADR-RES. The Log10LC50 in the assay on OVCAR-8 is given as over −4.00; with M14, over −4.00; with RXF 393 it was −6.41; in the assay with NCI/ADR-RES, over −4.00. In addition, the Log10TGI50 in the assay with OVCAR-8 is on record as −6.25; in the assay with M14 it was −6.26; with RXF 393, −6.98; in the assay on NCI/ADR-RES, over −4.00.

Consider `CC(C)C[C@H](NC(=O)[C@H](COC(F)F)NC(=O)CN1CCOCC1)C(=O)N[C@@H](Cc1ccccc1)C(=O)N[C@@H](Cc1ccccc1)C(=O)[C@@]1(C)CO1` [Example 3, (2S)-N-[(1S)-1-benzyl-2-[[(1S)-1-benzyl-2-[(2R)-2-methyloxiran-2-yl]-2-oxo-ethyl]amino]-2-oxo-ethyl]-2-[[(2S)-3-(difluoromethoxy)-2-[(2-morpholinoacetyl)-amino]propanoyl]amino]-4-methyl-pentan-amide], for which the Log10GI50 in the assay with OVCAR-8 is on record as −7.25; in the assay with M14, −7.69; with RXF 393, −7.64; in the assay on NCI/ADR-RES, −5.86; in the assay on CCRF-CEM, under −8.00. Besides, the Log10LC50 is recorded as over −4.00 in the assay on OVCAR-8; over −4.00 with M14; −6.58 in the assay with RXF 393; over −4.00 in the assay on NCI/ADR-RES; over −4.00 in the assay on CCRF-CEM. Besides, the Log10TGI50 in the assay with OVCAR-8 is reported as −6.29; in the assay on M14 it was −6.54; in the assay on RXF 393, −7.18; in the assay on NCI/ADR-RES, over −4.00; with CCRF-CEM, −4.88.

For `CC(C)C[C@H](NC(=O)[C@H](COC(F)F)NC(=O)CN1CCOCC1)C(=O)N[C@@H](COC(F)F)C(=O)N[C@@H](Cc1ccccc1)C(=O)[C@@]1(C)CO1` [Example 4, (2S)-N-[(1S)-2-[[(1S)-1-benzyl-2-[(2R)-2-methyloxiran-2-yl]-2-oxo-ethyl]amino]-1-(difluoromethoxymethyl)-2-oxo-ethyl]-2-[[(2S)-3-(difluoromethoxy)-2-[(2-mor-pholinoacetyl)amino]propanoyl]amino]-4 methyl-pentanamide], the Log10GI50 in the assay with OVCAR-8 is −6.67; in the assay on M14, −6.97; in the assay with RXF 393, −6.83; in the assay with HOP-92 it was −7.59; in the assay with NCI/ADR-RES, −5.19; in the assay on CCRF-CEM, under −8.00. Besides, the Log10LC50 in the assay on OVCAR-8 is over −4.00; in the assay with M14, over −4.00; with RXF 393, −6.05; in the assay on HOP-92, −6.24; in the assay on NCI/ADR-RES, over −4.00; in the assay on CCRF-CEM, over −4.00. The Log10TGI50 in the assay with OVCAR-8 was −5.89; with M14, −5.66; in the assay on RXF 393, −6.44; in the assay on HOP-92 it was −7.15; in the assay on NCI/ADR-RES, over −4.00; in the assay with CCRF-CEM it was over −4.00.

For the molecule `CC(C)C[C@H](NC(=O)[C@H](COC(F)F)NC(=O)[C@H](COC(F)F)NC(=O)[C@H](CCc1ccccc1)NC(=O)CN1CCOCC1)C(=O)[C@@]1(C)CO1` [Example 7, (2S)-N-[(1S)-1-(difluoromethoxymethyl)-2-[[(1S)-1-(difluoromethoxymethyl)-2-[[(1S)-3-methyl-1-[(2R)-2-methyloxirane-2-carbo-nyl]butyl]amino]-2-oxo-ethyl]amino]-2-oxo-ethyl]-2-[(2-morpholinoacetyl)amino]-4-phenyl-butanamide], the Log10GI50 in the assay with OVCAR-8 is −6.94; in the assay on M14, −7.11; in the assay with RXF 393, −6.93; with HOP-92, −7.71; with NCI/ADR-RES it was −5.16; in the assay with CCRF-CEM, under −8.00. Moreover, the Log10LC50 is given as over −4.00 with OVCAR-8; over −4.00 with M14; −6.22 in the assay with RXF 393; −6.54 in the assay on HOP-92; over −4.00 in the assay on NCI/ADR-RES; over −4.00 with CCRF-CEM. The Log10TGI50 in the assay on OVCAR-8 is −5.93; in the assay with M14, −5.70; with RXF 393, −6.57; in the assay on HOP-92 it was −7.28; in the assay with NCI/ADR-RES, over −4.00; with CCRF-CEM, over −4.00.

With `CC(C)C[C@H](NC(=O)[C@H](Cc1ccccc1)NC(=O)[C@H](COC(F)F)NC(=O)[C@H](COC(F)F)NC(=O)CN1CCOCC1)C(=O)[C@@]1(C)CO1` [Example 11, (2S)-2-[[(2S)-3-(difluoromethoxy)-2-[[(2S)-3-(difluoromethoxy)-2-[(2-morpholinoacetyl)-amino]propanoyl]amino]propanoyl]amino]-N-[(1S)-3-methyl-1-[(2R)-2-methyloxirane-2-carbonyl]butyl]-3-phenyl-propanamide], the Log10GI50 in the assay with OVCAR-8 is −6.94; with M14, −7.21; in the assay on RXF 393, −6.98; in the assay on HOP-92, −7.62; in the assay with NCI/ADR-RES it was −5.16; in the assay on CCRF-CEM, under −8.00. Further, the Log10LC50 with OVCAR-8 is over −4.00; in the assay on M14, over −4.00; in the assay with RXF 393, −6.23; with HOP-92, −6.26; with NCI/ADR-RES, over −4.00; in the assay with CCRF-CEM it was over −4.00. Also, the Log10TGI50 was over −4.00 in the assay with OVCAR-8; −5.91 in the assay on M14; −6.60 in the assay with RXF 393; −7.15 in the assay on HOP-92; over −4.00 with NCI/ADR-RES; −4.57 in the assay on CCRF-CEM.

On to `CC(C)C[C@H](NC(=O)[C@H](COC(F)F)NC(=O)[C@H](COC(F)F)NC(=O)[C@H](COC(F)F)NC(=O)CN1CCOCC1)C(=O)[C@@]1(C)CO1` [Example 17, (2S)-3-(difluoromethoxy)-N-[(1S)-1-(difluoromethoxymethyl)-2-[[(1S)-1-(difluoro-methoxymethyl)-2-[[(1S)-3-methyl-1-[(2R)-2-methyloxirane-2-carbonyl]butyl]amino]-2-oxo-ethyl]amino]-2-oxo-ethyl]-2-[(2-mor-pholinoacetyl)amino]-propanamide], for which the Log10GI50 in the assay on OVCAR-8 was −6.31; in the assay with M14 it was −6.59; in the assay on RXF 393 it was −6.48; in the assay on HOP-92, −7.56; in the assay on NCI/ADR-RES it was −4.50; in the assay on CCRF-CEM it was −7.39. The Log10LC50 is listed as over −4.00 with OVCAR-8; over −4.00 in the assay on M14; −5.41 with RXF 393; −6.02 in the assay with HOP-92; over −4.00 in the assay with NCI/ADR-RES; over −4.00 with CCRF-CEM. Moreover, the Log10TGI50 with OVCAR-8 is on record as −5.25; in the assay with M14, −5.41; with RXF 393 it was −5.94; with HOP-92, −7.01; in the assay on NCI/ADR-RES it was over −4.00; with CCRF-CEM, over −4.00.
